Experimental data: patent publication US20240262814A1, “MODULATORS OF TREX1” (Constellation Pharmaceuticals, Inc., priority 2021, published 2024)

tested on: hTREX1 HCT116; assay: hTREX1 HCT116 Cell Assay (Lucia luciferase reporter, Type I interferon induction); type: cell-based; settings: Homo sapiens, HCT-116, HCT116 dual cells, 4h compound, then pBR322/BstNI DNA transfection, 48h
Excerpt: HCT116 dual cells (Invivogen, San Diego, CA, USA) are derived from the human HCT116 colorectal carcinoma cell line. Cells have been selected for the stable integration of SEAP and Luciferase reporter genes, which expression is under the control of 5 tandem response elements for NF-KB/AP1 and STAT1/STAT2, respectively. The cell line was used to monitor Type I interferon induction and subsequent signaling by measuring the activity of the Lucia luciferase secreted in the culture medium.
HCT116 cells were plated in 96-well plate(s) at 40,000 cells/well in 100 uL DMEM supplemented with 10% FBS and 25 mM Hepes (pH 7.2-7.5). After overnight settling, cells were treated with TREX1i for 4h (maximum DMSO fraction was 0.1%) before 1 ug/mL pBR322/BstNI restriction digest (New England Biolabs, Ipswich, MA, USA) was transfected with Lipofectamine LTX (ThermoFisher, Grand Island, NY, USA), according to product manual recommendations. Briefly, Lipofectamine LTX (0.35 uL/well) was diluted in OptiMEM (5 uL/well). pBR322/BstNI (100 ng/well) was diluted in OptiMEM (5 uL/well) before Plus reagent (0.1 uL/100 ng DNA) was added. After 5 min incubation at room temperature, the DNA mixture was mixed dropwise with the diluted Lipofectamine LTX. After an additional 10 min incubation, the transfection mix (10 uL/well) was added to the cells. Cells were maintained at 37 C for 48h before monitoring the Lucia Luciferase activity from the cell culture medium.

Row | IC50 | SMILES
1 | > 100 nM | C[C@H](c1nc(C(=O)Nc2cnoc2)c(O)c(=O)n1C)[C@H](c1ccccc1)c1ccccc1C(F)(F)F (single isomer, unassigned) [Example 14 Isomer 2, 5-Hydroxy-N-(isoxazol-4-yl)-1-methyl-6-oxo-2-(1-phenyl-1-(2-(trifluoromethyl)phenyl)propan-2-yl)-1,6-dihydropyrimidine-4-carboxamide]
2 | > 100 nM | CC(c1nc(C(=O)Nc2cnoc2)c(O)c(=O)n1C)C(c1ccccc1)c1ccccc1 (single isomer, unassigned) [Example 1 Isomer 1, 2-(1,1-diphenylpropan-2-yl)-5-hydroxy-N-(isoxazol-4-yl)-1-methyl-6-oxo-1,6-dihydro pyrimidine-4-carboxamide]
3 | < 10 nM | Cn1c([C@@H](C(c2ccccc2C#N)c2ccccc2C#N)C(F)(F)F)nc(C(=O)Nc2cnoc2)c(O)c1=O (single isomer, unassigned) [Example 21 Isomer 1, 2-(3,3-bis(2-cyanophenyl)-1,1,1-trifluoropropan-2-yl)-5-hydroxy-N-(isoxazol-4-yl)-1-methyl-6-oxo-1,6-dihydropyrimidine-4-carboxamide]
4 | > 100 nM | Cn1c([C@H](C(c2ccccc2)c2ccccc2)C(F)(F)F)nc(C(=O)Nc2cnoc2)c(O)c1=O (single isomer, unassigned) [Example 20 Isomer 1, 5-Hydroxy-N-(isoxazol-4-yl)-1-methyl-6-oxo-2-(1,1,1-trifluoro-3,3-diphenylpropan-2-yl)-1,6-dihydropyrimidine-4-carboxamide]
5 | 10 to 100 nM | CC(c1nc(C(=O)Nc2cnoc2)c(O)c(=O)n1C)C(c1ccccc1)c1cc(C(=O)N(C)C)ccc1C#N (single isomer, unassigned) [Example 17 Isomer 3]
6 | < 10 nM | CC(c1nc(C(=O)Nc2cnoc2)c(O)c(=O)n1C)C(c1ccccc1C#N)c1ccccc1C#N (single isomer, unassigned) [Example 4 Isomer 2]
7 | 10 to 100 nM | C[C@H](c1nc(C(=O)Nc2cnoc2)c(O)c(=O)n1C)C(c1ccccc1Cl)c1ccccc1Cl (single isomer, unassigned) [Example 15 Isomer 1, 2-(1,1-bis(2-chlorophenyl)propan-2-yl)-5-hydroxy-N-(isooxazol-4-yl)-1-methyl-6-oxo-1,6-dihydropyrimidine-4-carboxamide]
